What was measured:
velvetleaf = assay: Test C postemergence; assay type: in vivo, Abutilon theophrasti; details: for Plant response rating (0 to 100), Velvetleaf: 16 g ai/ha, 0 is no effect, 100 is complete control
In short: (§1)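 Preemergence: seeds sown in a loam soil–sand blend and sprayed with test chemical in a non-phytotoxic solvent mixture containing surfactant. Postemergence: plants at 2 to 18 cm (1- to 4-leaf stage) in peat-based medium, treated with the same formulation. Greenhouse 13 to 15 days, then visual rating 0 (no effect) to 100 (complete control).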

large (Lg) crabgrass [1] = assay: Test A postemergence; assay type: in vivo, Digitaria sanguinalis
In short: (§2)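 Greenhouse pot test, loam/sand soil. Formulation: non-phytotoxic solvent mix plus surfactant. Pre: directed spray onto soil after sowing. Post: plants at 1–2 leaf, 2–10 cm. Rated visually vs untreated controls at ~10 d, 0 (no effect) to 100 (complete control).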

yellow nutsedge = assay: Test C preemergence; assay type: in vivo, Cyperus esculentus; details: for Nutsedge, Yellow plant response rating: preemergence; for Plant response rating, Nutsedge, Yellow: Preemergence, scale 0 to 100, 0 no effect, 100 complete control
Description: (§3) Seeds of plant species selected from blackgrass (Alopecurus myosuroides), Italian ryegrass (Lolium multiflorum), wheat, winter (winter wheat, Triticum aestivum), galium (catchweed bedstraw, Galium aparine), corn (Zea mays), large (Lg) crabgrass (Digitaria sanguinalis), giant foxtail (Setaria faberii), johnsongrass (Sorghum halepense), lambsquarters (Chenopodium album), morningglory (Ipomoea coccinea), yellow nutsedge (Cyperus esculentus), pigweed (Amaranthus retroflexus), ragweed (common ragweed, Ambrosia elatior), soybean (Glycine max), barnyardgrass (Echinochloa crus-galli), oilseed rape (Brassica napus), waterhemp (common waterhemp, Amaranthus rudis), kochia (Kochia scoparia), wild oat (Avena fatua), surinam grass (Brachiaria decumbens), foxtail, green (green foxtail, Setaria viridis), goosegrass (Eleusine indica), bromegrass, downy (downy bromegrass, Bromus tectorum), nightshade (eastern black nightshade, Solanum ptycanthum), cocklebur (common cocklebur, Xanthium strumarium), cupgrass, woolly (woolly cupgrass, Eriochloa villosa), bermudagrass (Cynodon dactylon), sunflower, (common oilseed sunflower, Helianthus annuus), Russian thistle (Salsola kali), and velvetleaf (Abutilon theophrasti) were planted into a blend of loam soil and sand and treated preemergence with test chemicals formulated in a non-phytotoxic solvent mixture which included a surfactant.
(§4) At the same time, plants selected from these crop and weed species and also barley, winter (winter barley, Hordeum vulgare), windgrass (Apera spica-venti), chickweed (common chickweed, Stellaria media), deadnettle (henbit deadnettle, Lamium amplexicaule), and canarygrass (littleseed canarygrass, Phalaris minor) were planted in pots containing Redi-Earth® planting medium (Scotts Company, 14111 Scottslawn Road, Marysville, Ohio 43041) comprising spaghnum peat moss, vermiculite, wetting agent and starter nutrients and treated with postemergence applications of test chemicals formulated in the same manner. Plants ranged in height from 2 to 18 cm (1- to 4-leaf stage) for postemergence treatments. Treated plants and controls were maintained in a greenhouse for 13 to 15 days, after which time all species were compared to controls and visually evaluated. Plant response ratings, summarized in Table C, are based on a scale of 0 to 100 where 0 is no effect and 100 is complete control. A dash (-) response means no test result.

pigweed [2] = assay: Test C postemergence; assay type: in vivo, Amaranthus retroflexus; details: for Plant response rating (0 to 100), Pigweed: 16 g ai/ha, 0 is no effect, 100 is complete control
In short: as §1

morningglory = assay: Test A postemergence; assay type: in vivo, Ipomoea spp.
In short: as §2

large (Lg) crabgrass [3] = assay: Test C preemergence; assay type: in vivo, Digitaria sanguinalis; details: for Crabgrass, Large plant response rating: preemergence; for Plant response rating, Crabgrass, Large: Preemergence, scale 0 to 100, 0 no effect, 100 complete control
Description: as §3, §4

giant foxtail = assay: Test A postemergence; assay type: in vivo, Setaria faberii
In short: as §2

corn = assay: Test A postemergence; assay type: in vivo, Zea mays
In short: as §2

waterhemp = assay: Test C preemergence; assay type: in vivo, Amaranthus rudis; details: for Waterhemp plant response rating: preemergence; for Plant response rating, Waterhemp: Preemergence, scale 0 to 100, 0 no effect, 100 complete control
Description: as §3, §4

chickweed = assay: Test C postemergence; assay type: in vivo, Stellaria media; details: for Plant response rating (0 to 100), Chickweed: 16 g ai/ha, 0 is no effect, 100 is complete control
In short: as §1

kochia = assay: Test C postemergence; assay type: in vivo, Kochia scoparia; details: for Plant response rating (0 to 100), Kochia: 16 g ai/ha, 0 is no effect, 100 is complete control
In short: as §1

Italian ryegrass [4] = assay: Test C postemergence; assay type: in vivo, Lolium multiflorum; details: for Plant response rating (0 to 100), Ryegrass, Italian: 16 g ai/ha, 0 is no effect, 100 is complete control
In short: as §1

pigweed [5] = assay: Test C preemergence; assay type: in vivo, Amaranthus retroflexus; details: for Pigweed plant response rating: preemergence; for Plant response rating, Pigweed: Preemergence, scale 0 to 100, 0 no effect, 100 complete control
Description: as §3, §4

ragweed = assay: Test A preemergence; assay type: in vivo, Ambrosia elatior; details: 0 to 100 scale where 0 is no effect and 100 is complete control
In short: as §2

blackgrass = assay: Test A postemergence; assay type: in vivo, Alopecurus myosuroides; details: 0 to 100 scale where 0 is no effect and 100 is complete control
In short: as §2

Italian ryegrass [6] = assay: Test A postemergence; assay type: in vivo, Lolium multiflorum; details: 500 g ai/ha, 0 to 100 scale where 0 is no effect and 100 is complete control
In short: as §2

galium = assay: Test A postemergence; assay type: in vivo, Galium aparine; details: 0 to 100 scale where 0 is no effect and 100 is complete control
In short: as §2

Italian ryegrass [7] = assay: Test A preemergence; assay type: in vivo, Lolium multiflorum; details: 0 to 100 scale where 0 is no effect and 100 is complete control
In short: as §2

[8] = 31 g ai/ha, postemergence, visual rating, scale 0 to 100 (0 no effect, 100 complete control), 13 to 15 days
[9] = 125 g ai/ha, postemergence, visual rating, scale 0 to 100 (0 no effect, 100 complete control)
[10] = Postemergence, 62 g ai/ha, scale 0 to 100 (0 no effect, 100 complete control)
[11] = 125 g ai/ha, 0 to 100 scale where 0 is no effect and 100 is complete control
[12] = 500 g ai/ha, 0 to 100 scale where 0 is no effect and 100 is complete control
[13] = 16 g ai/ha, scale 0 to 100 (0 no effect, 100 complete control)
[14] = 125 g ai/ha, scale 0 (no effect) to 100 (complete control)
[15] = 62 g ai/ha, scale 0 (no effect) to 100 (complete control)
[16] = 125 g ai/ha, 0 to 100 scale, 0 no effect, 100 complete control
[17] = 31 g ai/ha, scale 0 to 100 (0 no effect, 100 complete control)

Cc1cnc(Oc2cccc(C#N)c2-n2cc(C(F)(F)F)cn2)nc1 [Compound 180]
Plant response rating (0 to 100), Velvetleaf (velvetleaf; postemergence): 30 | Velvetleaf plant response rating (velvetleaf; [8]): 40 | Plant response rating, Velvetleaf (velvetleaf; [9]): 85 | Plant response rating, Velvetleaf (velvetleaf; [10]): 65 | Crabgrass, Large plant response rating (large (Lg) crabgrass [1]; [11]): 90 | Plant response rating, Crabgrass, Large (large (Lg) crabgrass [1]; [12]): 90 | Nutsedge, Yellow plant response rating (yellow nutsedge; [13]): 5 | Nutsedge, Yellow plant response rating (yellow nutsedge; [14]): 85 | Plant response rating, Nutsedge, Yellow (yellow nutsedge; 62 g ai/ha): 65 | Plant response rating (0 to 100), Pigweed (pigweed [2]; postemergence): 10 | Pigweed plant response rating (pigweed [2]; [8]): 55 | Plant response rating, Pigweed (pigweed [2]; [9]): 70 | Plant response rating, Pigweed (pigweed [2]; [10]): 60 | Morningglory plant response rating (morningglory; [11]): 100 | Plant response rating, Morningglory (morningglory; [12]): 100 | Crabgrass, Large plant response rating (large (Lg) crabgrass [3]; [13]): 100 | Crabgrass, Large plant response rating (large (Lg) crabgrass [3]; [14]): 100 | Plant response rating, Crabgrass, Large (large (Lg) crabgrass [3]; 62 g ai/ha): 100 | Foxtail, Giant plant response rating (giant foxtail; [11]): 90 | Plant response rating, Foxtail, Giant (giant foxtail; [12]): 90 | Corn plant response rating (corn; [11]): 70 | Plant response rating, Corn (corn; [12]): 90 | Waterhemp plant response rating (waterhemp; [13]): 90 | Waterhemp plant response rating (waterhemp; [14]): 100 | Plant response rating, Waterhemp (waterhemp; 62 g ai/ha): 100 | Plant response rating (0 to 100), Chickweed (chickweed; postemergence): 50 | Chickweed plant response rating (chickweed; [8]): 60 | Plant response rating, Chickweed (chickweed; [9]): 80 | Plant response rating, Chickweed (chickweed; [10]): 70 | Plant response rating (0 to 100), Kochia (kochia; postemergence): 40 | Kochia plant response rating (kochia; [8]): 50 | Plant response rating, Kochia (kochia; [9]): 60 | Plant response rating, Kochia (kochia; [10]): 50 | Plant response rating (0 to 100), Ryegrass, Italian (Italian ryegrass [4]; postemergence): 0 | Ryegrass, Italian plant response rating (Italian ryegrass [4]; [8]): 0 | Plant response rating, Ryegrass, Italian (Italian ryegrass [4]; [9]): 10 | Plant response rating, Ryegrass, Italian (Italian ryegrass [4]; [10]): 5 | Pigweed plant response rating (pigweed [5]; [13]): 85 | Pigweed plant response rating (pigweed [5]; [14]): 100 | Plant response rating, Pigweed (pigweed [5]; 62 g ai/ha): 100

FC(F)c1cccc(Oc2ncc(Cl)cn2)c1-n1cc(C(F)(F)F)cn1 [Compound 170]
Crabgrass, Large plant response rating (large (Lg) crabgrass [1]; [11]): 70 | Plant response rating, Crabgrass, Large (large (Lg) crabgrass [1]; [12]): 90 | Nutsedge, Yellow plant response rating (yellow nutsedge; [13]): 0 | Nutsedge, Yellow plant response rating (yellow nutsedge; [15]): 15 | Nutsedge, Yellow plant response rating (yellow nutsedge; [14]): 55 | Morningglory plant response rating (morningglory; [11]): 60 | Plant response rating, Morningglory (morningglory; [12]): 90 | Crabgrass, Large plant response rating (large (Lg) crabgrass [3]; [13]): 25 | Crabgrass, Large plant response rating (large (Lg) crabgrass [3]; [15]): 100 | Crabgrass, Large plant response rating (large (Lg) crabgrass [3]; [14]): 100 | Plant response rating, Crabgrass, Large (large (Lg) crabgrass [3]; 31 g ai/ha): 95 | Foxtail, Giant plant response rating (giant foxtail; [11]): 70 | Plant response rating, Foxtail, Giant (giant foxtail; [12]): 90 | Corn plant response rating (corn; [11]): 80 | Plant response rating, Corn (corn; [12]): 90 | Waterhemp plant response rating (waterhemp; [13]): 100 | Waterhemp plant response rating (waterhemp; [15]): 100 | Waterhemp plant response rating (waterhemp; [14]): 100 | Pigweed plant response rating (pigweed [5]; [13]): 100 | Pigweed plant response rating (pigweed [5]; [15]): 100 | Pigweed plant response rating (pigweed [5]; [14]): 100

NC(=S)c1cccc(Oc2ncc(Cl)cn2)c1-n1cc(Cl)cn1 [Compound 292]
Plant response rating, Crabgrass, Large (large (Lg) crabgrass [1]; [16]): 60 | Plant response rating, Crabgrass, Large (large (Lg) crabgrass [1]; [12]): 90 | Nutsedge, Yellow plant response rating (yellow nutsedge; [13]): 0 | Nutsedge, Yellow plant response rating (yellow nutsedge; [17]): 0 | Nutsedge, Yellow plant response rating (yellow nutsedge; [14]): 35 | Plant response rating, Nutsedge, Yellow (yellow nutsedge; 62 g ai/ha): 0 | Plant response rating, Morningglory (morningglory; [16]): 90 | Plant response rating, Morningglory (morningglory; [12]): 100 | Crabgrass, Large plant response rating (large (Lg) crabgrass [3]; [13]): 100 | Crabgrass, Large plant response rating (large (Lg) crabgrass [3]; [17]): 100 | Crabgrass, Large plant response rating (large (Lg) crabgrass [3]; [14]): 100 | Plant response rating, Crabgrass, Large (large (Lg) crabgrass [3]; 62 g ai/ha): 100 | Plant response rating, Foxtail, Giant (giant foxtail; [16]): 70 | Plant response rating, Foxtail, Giant (giant foxtail; [12]): 90 | Plant response rating, Corn (corn; [16]): 50 | Plant response rating, Corn (corn; [12]): 80 | Waterhemp plant response rating (waterhemp; [13]): 100 | Waterhemp plant response rating (waterhemp; [17]): 100 | Waterhemp plant response rating (waterhemp; [14]): 100 | Plant response rating, Waterhemp (waterhemp; 62 g ai/ha): 100 | Pigweed plant response rating (pigweed [5]; [13]): 100 | Pigweed plant response rating (pigweed [5]; [17]): 100 | Pigweed plant response rating (pigweed [5]; [14]): 100 | Plant response rating, Pigweed (pigweed [5]; 62 g ai/ha): 100

Clc1cnc(Oc2cccc(Br)c2-n2cc(I)nn2)nc1 [Compound 117]
Plant response rating (0 to 100), Velvetleaf (velvetleaf; postemergence): 10 | Plant response rating, Velvetleaf (velvetleaf; [9]): 45 | Plant response rating, Velvetleaf (velvetleaf; [10]): 30 | Plant response rating, Ragweed (ragweed; 125 g ai/ha): 20 | Ragweed plant response rating (ragweed; 500 g ai/ha): 60 | Plant response rating, Blackgrass (blackgrass; 125 g ai/ha): 40 | Plant response rating, Blackgrass (blackgrass; 500 g ai/ha): 80 | Plant response rating (0 to 100), Pigweed (pigweed [2]; postemergence): 80 | Plant response rating, Pigweed (pigweed [2]; [9]): 90 | Plant response rating, Pigweed (pigweed [2]; [10]): 85 | Plant response rating, Ryegrass, Italian (Italian ryegrass [6]): 90 | Plant response rating, Galium (galium; 125 g ai/ha): 100 | Plant response rating, Galium (galium; 500 g ai/ha): 100 | Plant response rating, Foxtail, Giant (giant foxtail; [11]): 90 | Plant response rating, Foxtail, Giant (giant foxtail; [12]): 90 | Plant response rating, Corn (corn; [11]): 30 | Plant response rating, Corn (corn; [12]): 50 | Plant response rating (0 to 100), Chickweed (chickweed; postemergence): 50 | Plant response rating, Chickweed (chickweed; [9]): 80 | Plant response rating, Chickweed (chickweed; [10]): 70 | Plant response rating, Ryegrass, Italian (Italian ryegrass [7]; 125 g ai/ha): 20 | Ryegrass, Italian plant response rating (Italian ryegrass [7]; 500 g ai/ha): 30 | Plant response rating (0 to 100), Kochia (kochia; postemergence): 90 | Plant response rating, Kochia (kochia; [9]): 100 | Plant response rating, Kochia (kochia; [10]): 100 | Plant response rating (0 to 100), Ryegrass, Italian (Italian ryegrass [4]; postemergence): 0 | Plant response rating, Ryegrass, Italian (Italian ryegrass [4]; [9]): 5 | Plant response rating, Ryegrass, Italian (Italian ryegrass [4]; [10]): 0
